{"source": "patent US7015248B2", "about": "“Use of abietic acid and derivatives thereof for inhibiting cancer” (Xiamen Ever-Health Bio-Tech. Co. Ltd, priority 2002, dated 2006)", "key": {"[1]": {"tested_on": "HeLa cells, a human epithelioid cervical carcinoma cell line", "test": "video-enhanced DIC microscopy of cell morphology, HeLa cells", "format": "cell-based", "description": "(§1) For evaluation of the biological activities of abietic acid on mammalian cells, a time-lapsed recording using video-enhanced DIC microscopy on a variety of cultured cells, including cancerous and non-cancerous cell lines, before and after addition of abietic acid, was performed.\n(§2) Abietic acid may be extracted by any conventional methods. In one embodiment of the invention, abietic acid was extracted according to the method described in Luong J H et al., 1999, Electrophoresis. 20(7): 1546–54, and an abietic acid stock solution at a concentration of 150 μg/ml was prepared subsequently.\nHeLa cells, a human epithelioid cervical carcinoma cell line, were cultured in a standard medium under standard conditions. The HeLa cells were trypsinized and a cell suspension at a concentration of 10^5 cells per milliliter of medium was prepared therefrom. The cell suspension was poured into a 22×22 mm coverglass and treated without abietic acid or with the abietic acid stock solution to achieve a final concentration of 0.3 μg/ml (1/500 dilution), 0.15 μg/ml (1/1000 dilution) or 0.03 μg/ml (1/5000 dilution), respectively.\n(§3) It has been known that the morphology of a cell reflects the healthy condition of the cell. For instance, once a cell, which is normally attached to a substrate with a flat morphology, swells and becomes round in morphology, it means that the condition of the cell turns disadvantageous and the cell may stop the growth and be dead soon."}, "[2]": {"tested_on": "HepG2 cells, a human heptocellular carcinoma cell line", "test": "DIC microscopy of cell morphology, HepG2 cells", "format": "cell-based", "details": "for morphology of HepG2 cells: 24-hour incubation", "description": "as §1, §2\nHepG2 cells, a human heptocellular carcinoma cell line, were cultured in a standard medium under standard conditions. The HepG2 cells were trypsinized and a cell suspension at a concentration of 10^5 cells per milliliter of medium was prepared therefrom. The cell suspension was poured into a 22×22 mm coverglass and treated without abietic acid or with 0.3, 0.15 or 0.03 μg/ml abietic acid, respectively, as described above.\nas §3"}, "[3]": {"tested_on": "Detroit 551 normal fibroblast cells", "test": "DIC microscopy of cell morphology, Detroit 551 normal fibroblast cells", "format": "cell-based", "description": "as §1, §2\nDetroit 551 normal fibroblast cells were treated without abietic acid or with abietic acid, as described above. The morphology of the normal fibroblast cells was affected when treated with 0.15 and 0.3 μg/ml abietic acid.\nas §3"}, "[4]": {"tested_on": "MCF-7 breast cancer cell line", "format": "in vivo", "details": "0.02667 mg per gram body weight by gastric pipe per two days; for Average maximum diameter: 8 mice", "description": "Eighty Balb/c-nu/nu female nude mice, supplied by National Laboratory Animal Center in the ROC (Taiwan), four-week old, weight about 18 to 20 g, free of pinworm infection, were housed in the laboratories of the National Yang-Ming University, Taipei, ROC (Taiwan). Clear water and feeds were normally provided. The litters were replaced with new ones per three days. On the other hand, a MCF-7 breast cancer cell line was cultured under standard conditions.\nSince the nude mice were five weeks old, the nude mice were intramuscularly injected with 1.7 mg of estradiol valerate at their leg regions. On the other hand, the MCF-7 cells were treated with estradiol for 24 hours, and then trypsinized, centrifuged and recovered in the Minimum Essential Medium (MEM) medium to achieve a concentration of 2×10^7 cell/ml.\nAfter two days following the intramuscular injection of estradiol valerate, the nude mice were subcutaneously injected with 500 μl of the estradiol-treated MCF-7 cells (2×10^7 cell/ml) at their back regions. Once injection, the back regions swelled but became even later.\nAfter three weeks following the injection of the MCF-7 cells, a subcutaneous tumor of 2 mm in a maximum diameter was developed at the backs of the nude mice.\nThese tumor containing nude mice were divided into two groups, each including 8 mice. One of the two groups were fed normally as a control group. The mice of the other group were fed with abietic acid at a dosage of 0.02667 mg per gram of the body weight of the nude mice by a gastric pipe per two days for a period of more than 12 weeks (experimental group).\nThe maximum diameter of the tumor on the back of each nude mouse of the control group and the experimental group were recorded, as shown in Table 1 and FIG. 3."}, "[5]": {"test": "MTT (mitochondrial activity) assay of cell proliferation", "format": "cell-based", "from_the_text": "A MTT (mitochondrial activity) assay was used to determine a cell proliferation."}, "[6]": {"tested_on": "plasma membrane of the cell", "test": "electrophysiological experiments and dye-permeability assays", "format": "cell-based", "description": "In addition, to further study the mechanisms underlying the swelling phenomenon of a cell, electrophysiological experiments and dye-permeability assays were conducted to measure the permeability of a plasma membrane of the cell."}, "[7]": {"tested_on": "MCF-7 breast cancer cell line", "test": "combination with taxol against MCF-7 cells", "format": "cell-based", "details": "in combination with taxol"}, "[8]": {"tested_on": "Hep-G2 human hepatocellular carcinoma cell line", "test": "combination with mitomycin C on Hep-G2 cells", "format": "cell-based", "details": "in combination with mitomycin C"}, "lipoxygenase pathway": {"molecular_target": "lipoxygenase pathway", "details": "Ulusu et al., 2002; read-out: IC50 of inhibition of lipoxygenase pathway; cited from earlier work"}, "prostaglandin E2": {"tested_on": "prostaglandin E2", "details": "lipopolysaccharide-treated macrophages; Fernandez et al., 2001; cited from earlier work"}, "[9]": {"tested_on": "breast cancer cells such as MCF-7 or T-47D", "details": "Mellanen et al., 1996; cited from earlier work"}}, "note": "Read-outs that look alike come from different tables or passages of the source.", "data": [{"smiles": "CC(C)C1=CC2=CC[C@@H]3[C@](C)(CCC[C@@]3(C)C(=O)O)[C@H]2CC1", "note": "[abietic acid]", "values": [{"measurement": "morphology of HeLa cells", "setting": "[1]; 0.03, 0.15 and 0.3 μg/ml, 24-hour incubation", "value": "serious swelling phenomenon"}, {"measurement": "concentration effective to induce a swelling phenomenon", "setting": "[1]; HeLa cell line", "value": 0.03, "unit": "µg/mL"}, {"measurement": "growth of cancer cells after swelling", "setting": "[1]; HeLa cells, about 24 hours exposure, relatively low concentration", "value": "inhibition of the growth and the death of the cancer cells"}, {"measurement": "morphology of HepG2 cells", "setting": "[2]; 0.03 μg/ml", "value": "different morphology"}, {"measurement": "morphology of HepG2 cells", "setting": "[2]; 0.15 and 0.3 μg/ml", "value": "swelled"}, {"measurement": "concentration effective to induce a swelling phenomenon", "setting": "[2]; HepG2 cell line", "value": 0.03, "unit": "µg/mL"}, {"measurement": "growth of cancer cells after swelling", "setting": "[2]; HepG2 cells, about 24 hours exposure, relatively low concentration", "value": "inhibition of the growth and the death of the cancer cells"}, {"measurement": "morphology of normal fibroblast cells", "setting": "[3]; 0.03 μg/ml", "value": "normal and flat morphology"}, {"measurement": "morphology of normal fibroblast cells", "setting": "[3]; 0.15 and 0.3 μg/ml", "value": "affected"}, {"measurement": "concentration that affects the morphology of a normal fibroblast cell", "setting": "[3]; Detroit 551", "value": "higher than 0.15 μg/ml"}, {"measurement": "morphology and growth of normal fibroblast cells", "setting": "[3]; about 24 hours exposure at the same concentration", "value": "remained flat in morphology and grew well"}, {"measurement": "average maximum diameter of the tumor in comparison with mice without treatment", "setting": "[4]; 12 weeks", "value": "significantly reduced"}, {"measurement": "survival of mice to the end of the period", "setting": "[4]; more than 12 weeks", "value": "all the mice were alive"}, {"measurement": "Average maximum diameter", "setting": "[4]; week 1", "value": 0.587, "unit": "cm"}, {"measurement": "Average maximum diameter", "setting": "[4]; week 3", "value": 0.675, "unit": "cm"}, {"measurement": "Average maximum diameter", "setting": "[4]; week 6", "value": 0.700, "unit": "cm"}, {"measurement": "Average maximum diameter", "setting": "[4]; week 9", "value": 0.787, "unit": "cm"}, {"measurement": "Average maximum diameter", "setting": "[4]; week 12", "value": 0.800, "unit": "cm"}, {"measurement": "cell proliferation / mitosis", "setting": "[5]; abietic acid by itself", "value": "inhibit cell mitosis in a dose-dependent manner"}, {"measurement": "effect on killing effects of anti-cancer drugs", "setting": "[5]; in combination with a variety of anti-cancer drugs", "value": "significantly enhanced the killing effects of a variety of anti-cancer drugs"}, {"measurement": "permeability of a plasma membrane", "setting": "[6]", "value": "direct effect on influx and efflux of chemicals across the cell membrane"}, {"measurement": "effect on inhibitory activity of taxol", "setting": "[7]", "value": "enhance the inhibitory activity of taxol"}, {"measurement": "effect on efficacy of mitomycin C on growth", "setting": "[8]", "value": "accelerate the efficacy of mitomycin C"}, {"measurement": "IC50", "setting": "lipoxygenase pathway", "value": "29.5 ± 1.29", "unit": "µM"}, {"measurement": "production of prostaglandin E2", "setting": "prostaglandin E2", "value": "inhibit the production of the inflammatory mediator, prostaglandin E2"}, {"measurement": "estrogenic effect", "setting": "[9]", "value": "estrogenic"}]}]}
